Consider 102 compounds from PubChem BioAssay AID1549 (Sanford-Burnham Center for Chemical Genomics, 2009).

SMILES strings stand for the structures. Active and inactive are the calls of the source. The rule behind the calls is not given here.

The experiment deals with Influenza A virus M2 proton channel (A/TW/4845/1999 H1N1). Nature of the experiment: NMR binding screen, influenza A virus M2 proton channel, Kd (AID 1549). As to conditions: M2 protein.
Take `O=C1CC(c2c[nH]c3ccccc23)C(=O)N1` (configuration not stated): the Kd was > 4 mM (inactive).

In the case of `CC1CCC2(OC1)OC1CC3C4CCC5C[C@@H](O)CCC5(C)C4=CCC3(C)C1[C@@H]2C` (some centres not stated), the Kd is > 4 mM (inactive).

With `NC(=O)CC[C@H](N)C(=O)O`, the Kd was > 4 mM (inactive).

`O=C(CC1NCCNC1=O)Nc1ccccc1` (configuration not stated): the Kd is > 4 mM (inactive).

For `O=C(O)c1cccc(-n2cccc2)c1`, the Kd was > 4 mM (inactive).

As for `O=C(/C=C/c1ccccc1)c1ccc(O[C@@H]2O[C@H](CO)[C@@H](O)[C@H](O)[C@H]2O)cc1O`, the Kd is > 4 mM (inactive).

As to `Nc1ncnc2c1ncn2CCN1CCCCC1`, the Kd is > 4 mM (inactive).

For the compound `COc1cc2c(cc1OC)[C@@H]1C(=O)c3ccc4oc(C(C)C)cc4c3O[C@@H]1CO2`, the Kd is > 4 mM (inactive).

Regarding `Cc1cc(NC(=O)CSc2nncn2C)no1`, the Kd was > 4 mM (inactive).

For the compound `Nc1cc(C(F)(F)F)ccc1N1CCOCC1`, the Kd was > 4 mM (inactive).

Regarding `COC(=O)Cc1cc(=O)n(-c2ccccc2)[nH]1`, the Kd is > 4 mM (inactive).

For `CC(C)CCCC(C)C1CCC2C3=CC[C@H]4C[C@@H](O)CC[C@]4(C)C3CC[C@@]21C` (some centres not stated), the Kd was > 4 mM (inactive).

On to `COc1ccc(-c2coc3c(OC)c(OC)cc(O)c3c2=O)cc1`, for which the Kd is > 4 mM (inactive).

Consider `Cn1c(CO)nc2ccccc21`, for which the Kd was > 4 mM (inactive).

As for `O=C1C2CC=CCC2C(=O)N1c1ccccc1` (configuration not stated), the Kd is > 4 mM (inactive).

As for `Cc1ccc(C2NS(=O)(=O)N=C2N)cc1` (configuration not stated), the Kd was > 4 mM (inactive).

Regarding `NCCc1c[nH]c2ccccc12`, the Kd was > 4 mM (inactive).

Take `O=C1NNC(=O)C2C3c4ccccc4C(c4ccccc43)C12` (configuration not stated): the Kd was > 4 mM (inactive).

For `CC(=O)NC1C(=O)Nc2c(C)cc(C)cc21` (configuration not stated), the Kd is > 4 mM (inactive).

Take `O=C1C=CC(=O)N1c1ccc(N2CCOCC2)cc1`: the Kd was > 4 mM (inactive).

For the compound `O=C(c1cccc(-n2cnnn2)c1)N1CCOCC1`, the Kd was > 4 mM (inactive).

For the compound `CSc1nc2nccc(N)n2n1`, the Kd is > 4 mM (inactive).

As to `C[C@@H]1CC[C@]2(C(=O)O)CC[C@]3(C)C(=CCC4[C@@]5(C)CC[C@H](O)C(C)(C)C5CC[C@]43C)C2[C@H]1C` (some centres not stated), the Kd was > 4 mM (inactive).

In the case of `O=C(/C=C/c1ccc(O)c(O)c1)O[C@@H]1C[C@](O)(C(=O)O)C[C@@H](O)[C@H]1O`, the Kd was > 4 mM (inactive).

On to `COc1ccc(/C=C2/NC(=S)NC2=O)cc1`, for which the Kd is > 4 mM (inactive).

`Cc1nc(-c2cccc(C(=O)O)c2)cs1`: the Kd was > 4 mM (inactive).

On to `Cn1c(SCC(N)=O)nc2c1c(=O)[nH]c(=O)n2C`, for which the Kd is > 4 mM (inactive).

For `CC(=O)O[C@@H]1c2c(ccc3ccc(=O)oc23)OC(C)(C)[C@@H]1OC(=O)CC(C)C`, the Kd was > 4 mM (inactive).

Turning to `NC(=O)CN=Cc1c(O)[nH]c2ccccc12`, the Kd is > 4 mM (inactive).

As for `CN(C(=O)c1cc2cccnc2n(C)c1=O)c1ccccc1`, the Kd was > 4 mM (inactive).

With `CC1CCN(C(=O)c2ccc3c(c2)OCCO3)CC1`, the Kd is > 4 mM (inactive).

`CC(C)CNc1cc(=O)n(C)c(=O)n1C`: the Kd is > 4 mM (inactive).

As to `O=C(Nn1cnnc1)c1csc2c1CCCC2`, the Kd is > 4 mM (inactive).

With `COc1ccc2cc3[n+](cc2c1OC)CCc1cc2c(cc1-3)OCO2`, the Kd was > 4 mM (inactive).

For the compound `O=C(Nc1ccc(-c2nnco2)cc1)c1ccccc1`, the Kd is > 4 mM (inactive).

Regarding `COc1ccc(/C=C2/SC(N)=NC2=O)c(OC)c1`, the Kd was > 4 mM (inactive).

As to `C=CCc1cc(C(=O)N2CCCCC2)ccc1O`, the Kd was > 4 mM (inactive).

In the case of `CC(=O)c1cc2c(s1)SCC(=O)N2`, the Kd is > 4 mM (inactive).

Consider `CC(=O)Nc1ccc(C(=O)NC2=NCCS2)cc1`, for which the Kd is > 4 mM (inactive).

Consider `O=NN1C(=O)c2ccccc2C1=O`, for which the Kd is > 4 mM (inactive).

For the compound `Cc1nn(-c2ccccc2)nc1C(N)=O`, the Kd was > 4 mM (inactive).

With `Cc1[nH]c2ccccc2c1Cc1n[nH]c(=S)n1C`, the Kd was > 4 mM (inactive).

For the compound `CC1=CCCC2C1(C)CCC(C)C2(C)CC/C(C)=C/C[n+]1cn(C)c2c(N)ncnc21` (configuration not stated), the Kd is > 4 mM (inactive).

As to `O=CN1CCN(C2CC(=O)N(c3ccccc3)C2=O)CC1` (configuration not stated), the Kd was > 4 mM (inactive).

Turning to `Cc1cc(C(=O)N2CCCCCC2)cs1`, the Kd was > 4 mM (inactive).

As to `CN1CCN(C(=O)c2cc(-c3ccccc3)on2)CC1`, the Kd is > 4 mM (inactive).

`O=C(Nc1ccc2c(c1)OCO2)c1ccc(=O)[nH]n1`: the Kd is > 4 mM (inactive).

For the compound `O=C(O)c1cnc2sc3ccccc3n2c1=O`, the Kd is > 4 mM (inactive).

With `Cc1occc1C(=O)Nc1nnc(C(F)(F)F)s1`, the Kd is > 4 mM (inactive).

With `CN(C)c1ccc(N2C(=O)CCC2=O)cc1`, the Kd is > 4 mM (inactive).

Take `CC12CNCC(C)(CNC1)C2O` (configuration not stated): the Kd is > 4 mM (inactive).

As for `Cn1cc(Cl)c(C(=O)Nc2ccncc2)n1`, the Kd is > 4 mM (inactive).

As for `Cc1c(C(=O)Nn2cnnc2)oc2ccccc12`, the Kd was > 4 mM (inactive).

On to `CCCSc1nnc2[nH]c(=O)cc(N)n12`, for which the Kd is > 4 mM (inactive).

For the compound `O=c1[nH]c(N2CCOCC2)nc2ccccc12`, the Kd is > 4 mM (inactive).

Consider `Cc1ccccc1NC(=S)NCCO`, for which the Kd was > 4 mM (inactive).

On to `CS(=O)(=O)c1ccccc1C(=O)Nc1nccs1`, for which the Kd was > 4 mM (inactive).

Take `COc1cc(CNC(=O)CCCC/C=C/C(C)C)ccc1O`: the Kd was > 4 mM (inactive).

Take `Cc1nc(-c2ccc(C(=O)N3CCOCC3)cc2)cs1`: the Kd was > 4 mM (inactive).

On to `Cc1cc(NC(=O)c2ccccc2C(=O)O)no1`, for which the Kd was > 4 mM (inactive).

Consider `O=c1[nH]cnc2nc[nH]c12`, for which the Kd is > 4 mM (inactive).

Consider `O=[n+]1cc(-c2ccccc2)n([O-])c2c1CCC2`, for which the Kd is > 4 mM (inactive).

Take `CCNC(CC(=O)Nc1ccc(F)cc1)C(=O)O` (configuration not stated): the Kd was > 4 mM (inactive).

Regarding `Cc1cc(C(=O)N2CCN(c3ccccn3)CC2)no1`, the Kd is > 4 mM (inactive).

In the case of `CC1CN(C(=O)c2ccncc2)CC(C)O1` (configuration not stated), the Kd was > 4 mM (inactive).

With `Cc1nn(-c2ccccc2)nc1CO`, the Kd was > 4 mM (inactive).

With `NCc1cccc2c1OCCCO2`, the Kd is > 4 mM (inactive).

For the compound `CC1CN(Cc2ccccn2)CCC1=O` (configuration not stated), the Kd is > 4 mM (inactive).

With `Oc1ccccc1C(=S)N1CCCCCC1`, the Kd was > 4 mM (inactive).

For the compound `O=c1[nH]c(=S)c2c(n1-c1ccccc1)CCC2`, the Kd is > 4 mM (inactive).

On to `Cc1nc2ccccc2c(=O)n1NC(=O)Nc1ccccc1`, for which the Kd is > 4 mM (inactive).

For the compound `CC(C)(C)C(=O)Nc1nnc(SCC(N)=O)s1`, the Kd was > 4 mM (inactive).

Turning to `CCC(=O)NC(=S)Nc1ccc(O)cc1`, the Kd is > 4 mM (inactive).

As for `O=C(Nc1cnccn1)c1cccnc1`, the Kd was > 4 mM (inactive).

For `O=C(Nc1cccnc1)c1c(F)c(F)c(F)c(F)c1F`, the Kd is > 4 mM (inactive).

For the compound `Nc1nc2ccc(N3CCOCC3)cc2s1`, the Kd is > 4 mM (inactive).

`CCOC(=O)C1C(C=C(C)C)C1(C)C` (configuration not stated): the Kd was > 4 mM (inactive).

With `Nc1nc(-c2ccccc2)ns1`, the Kd was > 4 mM (inactive).

For the compound `CCC(C)C(=O)O[C@H]1[C@H](O)C2C(CN3CC(C)CCC3[C@@]2(C)O)C2C[C@]34O[C@]5(O)C(OC(=O)C(C)(O)CC)CC[C@@]3(C)C5C(OC(C)=O)[C@@H](OC(C)=O)C4[C@@]21O` (some centres not stated), the Kd was > 4 mM (inactive).

On to `Cc1ccccc1N1CCN(C(=O)C2CCCCC2)CC1`, for which the Kd was > 4 mM (inactive).

In the case of `CN1CCN(C(=O)c2ccccc2N)CC1`, the Kd is > 4 mM (inactive).

On to `NC(=O)c1ccc(N2CCCCC2)c(N)c1`, for which the Kd is > 4 mM (inactive).

For the compound `CN1C(=O)CC(=O)N(C)c2ccccc21`, the Kd was > 4 mM (inactive).

`COc1ccc2ccc(=O)oc2c1`: the Kd was > 4 mM (inactive).

For the compound `CCN(CC)c1nc2n(c(=O)n1)CCO2`, the Kd was > 4 mM (inactive).

Take `NCc1ccc(N2CCOCC2)cc1`: the Kd was > 4 mM (inactive).

Regarding `NC(=O)C1CCN(c2ccc(Cl)nn2)CC1`, the Kd was > 4 mM (inactive).

With `COc1c(F)c(F)c(-c2csc(N)n2)c(F)c1F`, the Kd is > 4 mM (inactive).

For `Cc1noc(C)c1CSc1nc2ccccc2[nH]1`, the Kd is > 4 mM (inactive).

Regarding `CCN1CCc2c(sc(N)c2C#N)C1`, the Kd was > 4 mM (inactive).

With `O=C(O)c1[nH]nc2c1COc1ccccc1-2`, the Kd was > 4 mM (inactive).

On to `Cc1ccc(/C=C2/NC(=S)NC2=O)s1`, for which the Kd is > 4 mM (inactive).

Take `O=C(O)C1CC(=O)N(Cc2cccs2)C1` (configuration not stated): the Kd is > 4 mM (inactive).

For `CC(=O)Nc1cc(N2C(=O)C=CC2=O)ccc1Cl`, the Kd was > 4 mM (inactive).

Consider `Cn1c(=O)c2[nH]cnc2n(-c2ccccc2)c1=O`, for which the Kd is > 4 mM (inactive).

Take `O=C(O)c1cccnc1Oc1ccccc1`: the Kd is > 4 mM (inactive).

Take `Cn1c(=O)c2c(ncn2C)n(C)c1=O`: the Kd was > 4 mM (inactive).

In the case of `Cc1ccc2[nH]c3nc(=S)[nH]nc3c2c1`, the Kd is > 4 mM (inactive).

Take `C/C=C(/C)C(=O)O[C@H]1CC[C@@]2(C)[C@@H]3CC[C@H]4[C@]5(O)C[C@H](O)[C@@]6(O)[C@@H](CN7C[C@@H](C)CC[C@H]7[C@@]6(C)O)[C@]5(O)C[C@@]42OC13O`: the Kd is > 4 mM (inactive).

Turning to `NN1C(=O)/C(=C/c2ccc(O)c(O)c2)SC1=S`, the Kd was > 4 mM (inactive).

Consider `CCOC(=O)c1snnc1-c1ccccc1`, for which the Kd was > 4 mM (inactive).

Take `Cc1ccc2cc(N)ccc2n1`: the Kd is > 4 mM (inactive).

For orientation: Kd means a measure of binding affinity in units of concentration.
